# Read-outs that look alike come from different tables or passages of the source.
# Columns and labels:
# MV4-11 leukemia cells = experiment: Inhibition of proliferation of MV4-11 leukemia cells (CellTiter-Glo, 72 h); assay type: cell-based; details: read-out: IC50 value, MV4-11 cell proliferation
# Method: Specific experimental procedures: 1) At Day 0: Inoculating trypsin-digested cells in 96-well plate and suspending the plate in cell culture medium; measure cell density using an automatic cell counter, diluting the cells with the culture medium to appropriate density, adding 100 μl of cell suspension in the 96-well plate, and incubating a cell-free medium as a control well in a cell incubator with […] at 37° C. overnight; 2) Day 1: Treating test compounds of the cells using a drug for a total of 8 concentrations, and diluting at a 3× concentration, wherein 10 μM is a starting test concentration of the test compounds. […] IC50 values are obtained by a four-parameter regression using software attached to the plate reader (the specific results are shown in Table 2).
# [1] = test system: KYSE520 tumor cell xenograft; experiment: Growth inhibition of xenograft in nude mice; assay type: in vivo; details: 30 mg/kg, orally, once daily, for 21 consecutive days
# Description: (§1) Experimental method: 1) Culturing MV 4-11/KYSE520/NCI-H358 cells in a culture medium containing 10% fetal bovine serum. Harvesting tumor cells at an exponential growth phase, and resuspending in PBS to suitable concentrations for subcutaneous tumor inoculation in nude mice. 2) Subcutaneously inoculating 2-8×10^7 tumor cells at the right back of a mouse, and resuspending the cells in PBS and matrigel (1:1); observing tumor growth regularly, and randomizing mice for administration based on tumor size and mouse body weight when tumors grow to a mean volume of ˜120 mm^3-[…]. 3) Defining the day of tumor cell inoculation as Day 0. Prior to the start of dosing, weighing all animals and measuring the tumor volume with a vernier caliper. 3) Administering orally compound of examples (prepared with water for injection containing 1% Tween80 to a desired concentration for use) at a given dose for three consecutive weeks, and giving an equal amount of solvent animals in a solvent control group. Measuring diameters of the xenograft twice a week throughout the experiment, and weighing the mice were at the same time.
# (§2) The calculation formula of tumor volume (TV) is: TV=½×a×b^2, wherein a and b represent length and width, respectively. The relative tumor volume (RTV) is calculated based on the measured results using the formula: RTV=Vt/V0, wherein V0 is the tumor volume measured at the time of dosing in separate cages (i.e., Day 0) and Vt is the tumor volume at each measurement. The anti-tumor activity is evaluated by the following measures: 1) relative tumor proliferation rate T/C (%), which is calculated by the following formula: T/C (%)=(TRTV/CRTV)×100%, wherein TRTV: RTV of ae treatment group; CRTV: RTV of a negative control group; 2) inhibition rate of tumor volume growth GI %, which is calculated by the following formula: GI %=[1−(TVt−TV0)/(CVt−[…])]×100%, wherein TVt is the tumor volume at each measurement in the treatment group; TV0 is the tumor volume obtained at the time of dosing in separate cages in the treatment group; CVt is the tumor volume at each measurement in the control group; CV0 is the tumor volume obtained at the time of dosing in separate cages in the control group (specific data are shown in Table 4).
# [2] = test system: MV 4-11 tumor cell xenograft; experiment: Growth inhibition of xenograft in nude mice; assay type: in vivo; details: 30 mg/kg, orally, once daily, for 21 consecutive days
# Description: as §1, §2
# SHP2 enzyme = SHP2 enzyme (Homo sapiens (Human), UniProt Q06124); experiment: Inhibitory activity against SHP2 enzyme (Caliper conversion rate); assay type: biochemical; details: read-out: SHP2 Enzyme Inhibition IC50 Value
# Method: (1) Preparing 1×Reaction Buffer according to the BPS Biosciences' Instructions for Use of the SHP2 enzyme. (2) Preparing a compound concentration gradient: Test the test compound at 10 μM under 3× dilution for 10 concentrations, diluting to a 100% dimethyl sulfoxide solution at a 100× final concentration in a 384-well plate, and diluting the compound with Precision 4× for 10 concentrations. Transferring 250 nL of the compound at the 100× final concentration to a target plate OptiPlate-384F using a dispenser Echo 550. […] (3) Preparing the activation peptide solution at a 5× final concentration with the 1×Reaction Buffer, adding 5 μL of the solution to a reaction plate, respectively, and centrifuging at 1000 rpm for 1 min. (4) Preparing an enzyme solution at a 2.5× final concentration with the 1×Reaction Buffer, adding 10 μL of the solution to the reaction plate, respectively, centrifuging at 1000 rpm for 1 min, and incubating at room temperature for 60 min. (5) Preparing a substrate peptide solution at a 2.5× final concentration with the 1×Reaction Buffer, centrifuging at 1000 rpm for 1 min, and incubating at room temperature for 30 min. (6) Adding 30 μL of stop test solution to stop the reaction, centrifuging at 1000 rpm for […], and mixing well by shaking. (7) Reading the conversion rate with a Caliper EZ Reader. (7) Data analysis:
# Wherein: Conversion %/_sample is the reading of a conversion rate of a sample; Conversion %_min: mean of negative control wells, which represents the reading of a conversion rate in absence of enzyme activity wells; Conversion %_max: mean of a ratio of positive control wells, which represents the reading of a conversion rate in absence of compound inhibition wells.
# [3] = test system: NCI-H358 tumor cell xenograft; experiment: Growth inhibition of xenograft in nude mice; assay type: in vivo; details: 10 mg/kg, orally, once daily, for 21 consecutive days
# Description: as §1, §2
IC50 (MV4-11 leukemia cells; 72 h),IC50 (SHP2 enzyme),"IC50 (MV4-11 leukemia cells; Homo sapiens, MV4-11, 72 h)",SMILES,T/C [1],T/C [2],T/C [3]
1670 nM,,,"CC1(N)CCN(c2cnc(-c3cccc(Cl)c3Cl)c(N)n2)CC1 [SHP099, reference compound]",43%,47%,
,6.8 nM,43 nM,"Cc1nc(N2CCC3(CC2)CO[C@@H](C)[C@H]3N)n2ccnc2c1Sc1ccnc(N)c1Cl [Comparative Compound 3, reference compound]",,,39%
